As a reminder, the IC50 is the concentration needed to halve the response being measured.

Values joined by “and” are separate entries in the source; they are usually repeats but may differ in a detail not shown here. Identical values can stand only once. Counter-ions that a name gives are not always drawn. Like-named read-outs stand apart in the source and are kept apart here. Marks after values point to notes of the source that are not given here.

The values that follow come from publication PMC9699400 (Molecules, 2022).

Data set [1] deals with PC12 cells. Particulars: 10 µM; ref 54 (Liu et al.); cited from earlier work.
Data set [2] has as its target T1, AChE (Electrophorus electricus, UniProt O42275).
T1 construct: purchased Sigma-Aldrich Co. (St. Louis, MO, USA)
Nature of the data set: Inhibitory type kinetics analysis (reversibility plots, Lineweaver-Burk). It is filed as biochemical. As to the method:
The type of inhibition was determined using the Lineweaver-Burk plot in double reciprocal form.

Data set [3] has as its target T1, AChE. Nature of the data set: Time-course inactivation kinetics of AChE. It is filed as biochemical. To be noted: for Transition Free Energy Change ΔΔG°: ΔΔG° = −RTlnk. The procedure: We determined enzyme activities at diverse contents every 3 min for 0–30 min and every 5 min for 30–70 min.
The target of data set [4] is T1, AChE. Nature of the data set: Fluorescence quenching of AChE. It counts as binding. As to the method:
After each drop, the solution was mixed and left for 3 min to balance the solution. The fluorescence emission spectra at 290 to 450 nm were scanned at an excitation wavelength of 280 nm, with emission and excitation slot widths of 2.5 nm.

The target of data set [5] is T1, AChE. Nature of the data set: CD spectra, secondary structure of AChE. The source says:
The MOS 450 CD spectrometer (Bio-Logic, Claix, France) was used to measure the CD spectra for AChE solution at 190 to 250 nm under ambient temperature. […] The method to analyze the content of specific secondary structures has been reported in our previous study.

Data set [6] deals with PC12 cells. In words: Quercetin-induced toxicity in PC12 cells (MTT). To be noted: 1–80 µM, 24 h, n = 6. The procedure: (§1) PC12 cells were procured from Nanjing KeyGen Biotech Co. Ltd. (Nanjing, China). The cells were maintained in high-glucose DMEM containing 10% fetal bovine serum (FBS) and 1% P-S and incubated under 5% CO2 and 37 °C. PC12 cells in the logarithmic phase were seeded in 96-well (approximately 2 × 10^4/well) or 24-well (approximately 1 × 10^5/well) culture plates, incubated for 24 h, followed by the replacement of the medium.

Data set [7] deals with Aβ25–35-induced PC12 cells. Nature of the data set: Aβ25–35-induced PC12 cell viability (MTT). To be noted: then 20 µM Aβ25–35 24 h, model group 51.43 ± 2.61. As to the method: as §1
(§2) Each group was provided with six duplicate wells based on different measurement indexes.
PC12 cells were inoculated in 96-well plates for 24 h.

Data set [8] concerns Aβ25–35-induced PC12 cells. In words: MDA content in Aβ25–35-induced PC12 cells. It is filed as cell-based. Particulars: quercetin pretreatment (1–40 µM), 20 µM Aβ25–35 24 h; p < 0.01 relative to the model group. The procedure:
as §2
(§3) For cell culture and grouping sample addition, please refer to Section 2.9. After incubation, the culture plate was centrifuged at 200× g for 5 min using a plate centrifuge, and the supernatant was discarded. Next, the cells were collected and broken by ultrasound and centrifuged at 3000 r/min at 4 °C for l0 min, and the supernatant was collected for subsequent assays. The OD was recorded at 532 and 405 nm, respectively, following the instructions mentioned in the manual for the MDA and GSH kits. Intracellular MDA content and GSH levels are expressed as percentages of the control.

The subject of data set [9] is Aβ25–35-induced PC12 cells. Nature of the data set: GSH level in Aβ25–35-induced PC12 cells. It counts as cell-based. The procedure:
as §2, §3

For data set [10], the system named is AChE. To be noted: cited from earlier work.
The mark [11] stands for this setting: molar ratio quercetin:AChE 10:1.

T1 sequence (O42275 24-633): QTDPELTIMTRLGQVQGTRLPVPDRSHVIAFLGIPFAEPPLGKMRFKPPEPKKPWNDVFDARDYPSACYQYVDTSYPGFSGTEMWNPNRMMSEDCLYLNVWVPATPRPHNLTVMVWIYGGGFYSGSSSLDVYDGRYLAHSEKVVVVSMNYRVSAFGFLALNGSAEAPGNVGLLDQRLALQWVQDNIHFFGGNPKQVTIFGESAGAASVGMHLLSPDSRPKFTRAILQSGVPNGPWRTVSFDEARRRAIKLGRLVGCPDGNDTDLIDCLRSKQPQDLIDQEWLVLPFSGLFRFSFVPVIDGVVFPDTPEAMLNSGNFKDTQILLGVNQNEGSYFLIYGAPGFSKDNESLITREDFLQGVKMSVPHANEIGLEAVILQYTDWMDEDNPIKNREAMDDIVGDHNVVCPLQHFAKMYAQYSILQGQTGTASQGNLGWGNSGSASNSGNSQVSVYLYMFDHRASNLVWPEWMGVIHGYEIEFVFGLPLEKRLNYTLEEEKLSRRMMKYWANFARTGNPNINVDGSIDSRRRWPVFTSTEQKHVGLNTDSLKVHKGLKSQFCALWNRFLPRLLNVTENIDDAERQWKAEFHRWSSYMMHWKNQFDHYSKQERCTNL

`COc1ccc2c3c1O[C@H]1C[C@@H](O)C=C[C@@]31CCN(C)C2` [galantamine hydrobromide]: the “protection of cells against Aβ25–35 neurotoxicity” value in data set [1] is on record as “significantly protected”.
With `O=c1c(O)c(-c2ccc(O)c(O)c2)oc2cc(O)cc(O)c12` [quercetin, 3,3′,4′,5,7-pentahydroxyflavone], the type of inhibition entry in data set [2] (Lineweaver–Burk, c(AChE) = 0.57 nM, quercetin 0–12.0 µM) is “mixed inhibitory type”. Besides, in data set [2] (plots of v versus [AChE], c(ATCI) = 0.25 mM, quercetin 0–8.0 µM), the reversibility of inhibition entry is listed as “reversible inhibitor”. Moreover, the “αKi (binding to AChE–ATCI complex)” value in data set [2] (secondary plot of Lineweaver–Burk y-intercepts) amounted to […]. For the same compound, the “Inactivation Rate Constant k” value in data set [3] (quercetin 1.5 µM) is […]; in data set [3] (quercetin 3.0 µM), […]; in [3] (quercetin 6.0 µM), […]; in data set [3] (quercetin 15.0 µM), […]. Further, the “Transition Free Energy Change ΔΔG°” value in data set [3] (quercetin 1.5 µM) came to […]; in data set [3] (quercetin 3.0 µM) it was […]; in [3] (quercetin 6.0 µM), […]; in data set [3] (quercetin 15.0 µM), […]. Moreover, the “bimolecular quenching rate constant Kq, magnitude order” value in data set [4] (25, 31 and 37 °C) was […]. The “Gibbs free energy ∆G°” value is […] in data set [4] (25 °C), […] in data set [4] (31 °C) and […] in data set [4] (37 °C). In addition, the “binding site quantity n” value in data set [4] (25 °C) turned out to be […]; in data set [4] (31 °C), […]; in data set [4] (37 °C), […]. The “quenching constant KSV” value in data set [4] (25 °C, pH 7.6) is […]; in data set [4] (31 °C) it was […]; in data set [4] (37 °C), […]. Besides, in [4] (van't Hoff equation, 25–37 °C), the “enthalpy change ∆H°” value is […]. Moreover, the “entropy change ∆S°” value in data set [4] (van't Hoff equation, 25–37 °C) is […]. The “β-Sheet of AChE” value in data set [5] (molar ratio quercetin:AChE 2:1, free AChE 18.62 ± 0.06) was […]; in data set [5] (molar ratio quercetin:AChE 6:1), […]; in [5] (setting [11]), […]. Besides, the “β-Turn of AChE” value in data set [5] (molar ratio quercetin:AChE 2:1, free AChE 19.18 ± 0.28) was […]; in data set [5] (molar ratio quercetin:AChE 6:1), […]; in [5] (setting [11]), […]. Besides, the “Random Coil of AChE” value in [5] (molar ratio quercetin:AChE 2:1, free AChE 28.02 ± 0.65) was […]; in data set [5] (molar ratio quercetin:AChE 6:1), […]; in data set [5] (setting [11]), […]. Also, the “α-Helix of AChE” value in [5] (molar ratio quercetin:AChE 2:1, free AChE 34.35 ± 0.74) is […]; in data set [5] (setting [11]), […]. Also, the “cytotoxicity (cell viability, MTT)” value in [6] was “no toxic effect”. Further, the “cell viability, % of the control group” value was […] in [7] (pretreatment 1 µM); […] in data set [7] (pretreatment 10 µM); […] in data set [7] (pretreatment 20 µM); 78.61 ± 3.26% in [7] (pretreatment 40 µM); […] in [7] (pretreatment 80 µM). Besides, the “release of MDA” value in [8] is “inhibited”. For the same compound, the “GSH levels versus model group” value in data set [9] (1 µM pretreatment, p > 0.05) is “no statistical difference”. For the same compound, in data set [9] (10, 20, and 40 µM pretreatment, dose-dependent), the “intracellular GSH levels versus model group” value is reported as “increased”. The results for the IC50 in data set [10] (reported by Jung) and in data set [10] (reported by Khan) were […] and […], respectively.
As to `C[C@@H]1O[C@@H](Oc2c(-c3ccc(O)c(O)c3)oc3cc(O)cc(O)c3c2=O)[C@H](O)[C@H](O)[C@H]1O` [quercitrin, reference compound], the IC50 in data set [10] (no reference at the value itself) was 94.5 µM.
Turning to `O=C1c2c(O)cc(O)cc2OC(c2ccc(O)c(O)c2)C1O` (stereo not drawn) [taxifolin, reference compound], the IC50 in data set [10] is 54 ± 1.58 µM.
